Assay results reported in article PMC11599936, “New-to-nature CO2-dependent acetyl-CoA assimilation enabled by an engineered B12-dependent acyl-CoA mutase” (Nature Communications, 2024).

Columns and labels:
Assay type in all cases: biochemical
AbfT = target: T1, AbfT (Clostridium aminobutyricum, UniProt Q9RM86); experiment: LC-MS CoA-transfer assay; settings: 100 mM HEPES pH 7.5, 10 mM MgCl2, 30 °C
T1 construct: recombinant from E. coli BL21 (DE3), Ni-NTA purified
T1 sequence (Q9RM86 1-438): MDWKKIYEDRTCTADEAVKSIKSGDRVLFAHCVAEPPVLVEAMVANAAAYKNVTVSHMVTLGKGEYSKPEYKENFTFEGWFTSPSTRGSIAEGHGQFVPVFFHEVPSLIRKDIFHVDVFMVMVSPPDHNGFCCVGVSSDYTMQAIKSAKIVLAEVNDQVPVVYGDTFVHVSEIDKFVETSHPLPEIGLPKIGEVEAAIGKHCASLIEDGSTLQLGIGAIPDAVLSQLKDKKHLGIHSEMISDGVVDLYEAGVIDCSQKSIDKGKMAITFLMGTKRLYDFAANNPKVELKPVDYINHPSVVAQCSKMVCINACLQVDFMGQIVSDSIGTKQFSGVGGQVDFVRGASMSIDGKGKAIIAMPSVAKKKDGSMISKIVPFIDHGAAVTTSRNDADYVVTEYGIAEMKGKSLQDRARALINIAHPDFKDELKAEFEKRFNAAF

Pct = target: T2, Pct (Cupriavidus necator, UniProt Q0K874); experiment: LC-MS CoA-transfer assay; settings: 100 mM HEPES pH 7.5, 10 mM MgCl2, 30 °C
T2 construct: recombinant from E. coli BL21 (DE3), Ni-NTA purified
T2 sequence (Q0K874 1-542): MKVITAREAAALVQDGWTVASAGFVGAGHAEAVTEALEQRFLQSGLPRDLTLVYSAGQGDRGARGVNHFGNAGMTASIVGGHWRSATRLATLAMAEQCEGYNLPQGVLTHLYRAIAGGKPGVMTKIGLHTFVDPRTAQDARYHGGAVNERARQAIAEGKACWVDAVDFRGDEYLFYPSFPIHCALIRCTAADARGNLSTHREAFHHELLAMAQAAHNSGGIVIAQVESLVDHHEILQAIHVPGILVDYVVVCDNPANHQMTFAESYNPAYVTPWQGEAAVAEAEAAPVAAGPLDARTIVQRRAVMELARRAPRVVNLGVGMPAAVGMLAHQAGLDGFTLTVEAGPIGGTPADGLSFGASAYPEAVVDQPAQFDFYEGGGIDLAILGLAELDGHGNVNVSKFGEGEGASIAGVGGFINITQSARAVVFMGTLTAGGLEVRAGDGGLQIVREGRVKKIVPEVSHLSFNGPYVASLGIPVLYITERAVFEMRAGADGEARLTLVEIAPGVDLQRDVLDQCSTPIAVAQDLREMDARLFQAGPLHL

[1] = target: T3, 2-hydroxyisobutyryl-CoA mutase from Aquincola tertiaricarbonis (Aquincola tertiaricarbonis, UniProt I3VE74+I3VE77); experiment: coupled PhaJ/Etr1p assay, NADPH at […] nm; settings: 12.5 µM coenzyme B12, 50 mM NaPO4 pH 7, 30 °C
T3 construct: gene hcmA
T3 sequence (I3VE77 1-562): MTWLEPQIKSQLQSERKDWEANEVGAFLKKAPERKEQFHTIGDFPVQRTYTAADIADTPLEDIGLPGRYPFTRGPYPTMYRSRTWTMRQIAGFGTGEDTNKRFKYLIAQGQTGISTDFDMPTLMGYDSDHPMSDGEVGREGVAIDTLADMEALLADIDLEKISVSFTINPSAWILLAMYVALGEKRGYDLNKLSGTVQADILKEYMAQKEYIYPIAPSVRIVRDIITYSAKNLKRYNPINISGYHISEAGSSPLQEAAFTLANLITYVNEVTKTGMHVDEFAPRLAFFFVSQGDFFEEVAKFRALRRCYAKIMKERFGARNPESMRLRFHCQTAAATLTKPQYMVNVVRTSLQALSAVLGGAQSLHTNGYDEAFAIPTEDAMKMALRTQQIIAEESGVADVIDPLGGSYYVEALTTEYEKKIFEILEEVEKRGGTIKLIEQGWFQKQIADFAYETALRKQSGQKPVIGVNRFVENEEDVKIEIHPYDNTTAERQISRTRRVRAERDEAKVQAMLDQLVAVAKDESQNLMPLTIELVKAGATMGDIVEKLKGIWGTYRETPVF
T3 sequence (I3VE74 1-136): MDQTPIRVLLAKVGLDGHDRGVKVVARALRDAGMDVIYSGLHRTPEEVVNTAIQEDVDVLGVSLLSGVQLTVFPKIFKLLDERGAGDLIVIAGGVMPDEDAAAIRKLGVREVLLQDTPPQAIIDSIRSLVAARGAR

[2] = CoA donor acetyl-CoA 100 µM, 1 mM acid

## CC(=O)SCCNC(=O)CCNC(=O)[C@H](O)C(C)(C)COP(=O)(O)OP(=O)(O)OC[C@H]1O[C@@H](n2cnc3c(N)ncnc32)[C@H](O)[C@@H]1OP(=O)(O)O [acetyl-CoA]
AbfT; CoA acceptor 3-HP 1 mM
  LC-MS CoA-transfer assay: performed best with 3-HP as CoA-acceptor and acetyl-CoA as CoA-donor
Pct; CoA acceptor 3-HP 1 mM
  LC-MS CoA-transfer assay: performed best with 3-HP as CoA-acceptor and acetyl-CoA as CoA-donor

## CC(C)(O)C(=O)SCCNC(=O)CCNC(=O)[C@H](O)C(C)(C)COP(=O)(O)OP(=O)(O)OC[C@H]1O[C@@H](n2cnc3c(N)ncnc32)[C@H](O)[C@@H]1OP(=O)(O)O [2-hydroxyisobutyryl-CoA]
[1]
  coupled PhaJ/Etr1p assay, NADPH at 340 nm: we confirmed functionality of this purified enzyme with its native substrate 2-hydroxyisobutyryl-CoA

## O=C(O)CCO [3-hydroxypropionate]
AbfT; [2]
  LC-MS CoA-transfer assay: performed best with 3-HP as CoA-acceptor and acetyl-CoA as CoA-donor
Pct; [2]
  LC-MS CoA-transfer assay: performed best with 3-HP as CoA-acceptor and acetyl-CoA as CoA-donor
